Source: publication PMC3025356, “Mechanism of the Ca^2+-Dependent Interaction between S100A4 and Tail Fragments of Nonmuscle Myosin Heavy Chain IIA” (Journal of Molecular Biology, 2011)
Read-outs that look alike come from different tables or passages of the source.

Columns and labels:
[1] = Isothermal titration calorimetry of Ca^2+ binding to S100A4 constructs
Experimental: Fig. 2 ITC records for Ca^2+ binding to S100A4 constructs: (a) 75 μM wild type at 30 °C; (b) 75 μM wild type at 10 °C; (c) 75 μM E33Q construct at 30 °C; (d) 300 μM D63N construct at 30 °C. For mutant constructs data at 10 °C, see Fig. S1. All preparations were dialysed against the same buffer of 20 mM NaCl, 10 mM Hepes, and 2 mM DTT (pH 7.5).
ITC data were collected using a VP-ITC microcalorimeter (MicroCal Ltd., Northampton, MA) and analysed by fitting to a single-site binding equation or a two-site binding equation using MicroCal Origin software.

[2] = Stopped-flow tyrosine fluorescence, Ca^2+ dissociation from S100A4 constructs; assay type: binding
Experimental: Stopped-flow measurements were carried out using an SX18-MV apparatus (Applied Photophysics Ltd., Leatherhead, UK) with a dead time of 1.5 ms.[40] Records were generally captured on a logarithmic time base. Absorption (turbidity) measurements were usually recorded using a 10-mm pathlength, while fluorescence was recorded with a 2-mm pathlength for excitation and emission. The stated concentrations of components refer to the reaction chamber after mixing, unless otherwise indicated. Tyrosine fluorescence was excited at 280 nm, and the emission was collected through a UG11 bandpass filter plus a 305-nm longpass filter.[18] Fluorescein fluorescence was excited at 480 nm, and the emission was detected through a 515-nm longpass filter. Quin-2 fluorescence was measured by excitation at 336 nm, and emission was collected with a 455-nm longpass filter. For simultaneous recording of light scatter, a second channel was monitored through a UG11 filter. Rate constants were obtained by fitting to single-exponential or double-exponential functions using Kaleidagraph (Synergy Software) or Applied Photophysics Pro-Data software. Modeling of kinetic schemes was performed using Berkeley Madonna software.
Dissociation of Ca2+ from wild type S100A4 (black), Y19F mutant (blue) and Y75F mutant (red) monitored by tyrosine fluorescence. 13 M of each S100A4 construct plus 100 µM Ca2+ was mixed with 200 µM EGTA (reaction chamber concentrations) and the tyrosine fluorescence monitored. The buffer was 20 mM NaCl, 10 mM HEPES, 2 mM DTT at pH 7.5 and 20 °C. Fits to a single exponential function yielded rate constants of 20 s-1, 113 s-1 and 45 s-1 for wild-type, Y19F mutant and Y75F mutant respectively. (d) Dissociation of Ca2+ from wild type S100A4 (black), E33Q mutant (blue) and D63N mutant (red) monitored by tyrosine fluorescence. 13 M of each S100A4 construct plus 15 M Ca2+ was mixed with 200 M EGTA (reaction chamber concentrations) and the tyrosine fluorescence monitored. Fits to a single exponential function yielded rate constants of 22 s-1 and 49 s-1 for wild-type and E33Q construct respectively, while that […]
The records for the mutants were vertically offset for clarity in both […]

M111 = assay: NMR ^1H,^15N HSQC of labelled M111 on addition of full-length S100A4; assay type: binding, human; conditions: 1.5 molar excess of full-length S100A4
Experimental: Fig. 7 Chemical shift changes in the ^1H,^15N HSQC spectra of ^13C,^15N-labelled M111 on addition of full-length S100A4. Superposition of the spectra in free form (black) and in the presence of a 1.5 molar excess of S100A4 (red). Resonance assignments derived from the analysis of triple-resonance spectra are marked. In addition to sharp intense cross-peaks, the spectra contain broad low-intensity peaks that cannot be assigned due to low sensitivity.
All NMR samples were prepared in 20 mM 4-morpholineethanesulfonic acid, 20 mM NaCl, 5 mM CaCl2, and 5% D2O buffer (pH 6.1). DTT (2 mM) was added to the samples containing S100A4. Titration experiments were carried out at 0.2 mM S100A4 using 10 mM peptide solutions. Spectra for M111 backbone resonance assignments were measured using 0.4 mM protein solution. NMR spectra were obtained at 298 K using Bruker AVANCE DRX 600 or AVANCE DRX 800 spectrometers, which are both equipped with cryoprobes. Proton chemical shifts were referenced to external 2,2-dimethyl-2-silapentane-5-sulfonate. The ^15N and ^13C chemical shifts were referenced indirectly using recommended gyromagnetic ratios.[44] Spectra were processed with TopSpin (Bruker) and analysed using Analysis.[45] Three-dimensional HNCO, HN(CA)CO, HNCA, HN(CO)CA, HNCACB, and HN(CO)CACB experiments were used for the sequential assignment of the backbone NH, N, CO, C^α, and C^β resonances.

NM-MHC IIA rods = conditions: 20 mM NaCl; cited from earlier work
Description: Over the last two decades, there has been much interest in the role of the S100 Ca^2^+-binding protein family in the regulation of cellular events.[1,2] Identifying the specific targets of each of the 24 members[3] and deducing their mechanisms of action in vitro and in vivo remain to be a challenge. This is exemplified by S100A4 (also known as Mts1, metastasin, p9Ka, pEL98, calvasculin, and Fsp-1), which has been implicated in a wide range of cellular events and numerous diseases and binds to several different targets in vitro.[4–6] In particular, following early work,[7–9] there have been ma ...

Substance: S100A4: recombinant S100A4 expressed in E. coli BL21(DE3)
- n1 (Ca^2+ per monomer) ([1]; 10 °C, 75 μM protein (D63N 300 μM), 20 mM NaCl, 10 mM Hepes, 2 mM DTT, pH 7.5): 0.95 ± 0.014 Ca^2+ per monomer
- n1 (Ca^2+ per monomer) ([1]; 30 °C, 75 μM protein (D63N 300 μM), 20 mM NaCl, 10 mM Hepes, 2 mM DTT, pH 7.5): 0.83 ± 0.2 Ca^2+ per monomer
- stoichiometry (discussion) ([1]; ITC): one Ca^2+ per S100A4 monomer
- Kd ([1]; first site, Ca^2+ binding, 30 °C, 75 μM protein (D63N 300 μM), 20 mM NaCl, 10 mM Hepes, 2 mM DTT, pH 7.5, read-out: K1d): 1.7 µM
- Kd ([1]; first site, 10 °C, wild type and E33Q cooperative, read-out: K1d): 1.6 ± 0.4 µM
- Kd ([1]; one Ca^2+ per S100A4 monomer, read-out: Kd for Ca^2+ (discussion)): 1.7 µM
- Kd ([1]; read-out: Ca^2+ affinity of S100A4 dimer (discussion)): 2 to 6 µM
- N2 (Ca^2+ per monomer) ([1]; second site, 30 °C): 0.42 ± 0.27 Ca^2+ per monomer
- Kd ([1]; second site, 30 °C, read-out: K2d): 5.7 ± 1.1 µM
- stoichiometry of the higher-affinity site ([1]; summary of Table 1): 0.8–0.9 Ca^2+ per monomer
- Kd ([1]; temperatures of ≥ 30 °C, read-out: Kd of second site (discussion)): 6 µM
- Ca^2+ dissociation rate constant (tyrosine) ([2]; 13 μM S100A4 + 15 μM Ca^2+ mixed with 200 μM EGTA): 22 s^− 1
- Ca^2+ dissociation rate constant (tyrosine) ([2]; 13 μM S100A4 + 100 μM Ca^2+ mixed with 200 μM EGTA, 20 mM NaCl, 10 mM Hepes, 2 mM DTT, pH 7.5, 20 °C): 20 s^− 1
- resonance broadening in M111 on S100A4 addition (M111): additional broadening of resonances in the 1926–1939 region
- binding to rods (NM-MHC IIA rods): micromolar affinity
